Test results as given in US20230203029A1 (priority 2020, published 2023).
Like-named read-outs stand apart in the source and are kept apart here.

What was measured:
[1] = target: T1, human AXL cytoplasmic domain (Homo sapiens, UniProt P30530); experiment: Assay 1b AXL HTRF KinEASE-TK assay; assay type: biochemical
T1 construct: human AXL cytoplasmic domain (Thermo Fisher A31515); purchased Thermo Fisher A31515
T1 sequence (P30530 473-894 limits assumed): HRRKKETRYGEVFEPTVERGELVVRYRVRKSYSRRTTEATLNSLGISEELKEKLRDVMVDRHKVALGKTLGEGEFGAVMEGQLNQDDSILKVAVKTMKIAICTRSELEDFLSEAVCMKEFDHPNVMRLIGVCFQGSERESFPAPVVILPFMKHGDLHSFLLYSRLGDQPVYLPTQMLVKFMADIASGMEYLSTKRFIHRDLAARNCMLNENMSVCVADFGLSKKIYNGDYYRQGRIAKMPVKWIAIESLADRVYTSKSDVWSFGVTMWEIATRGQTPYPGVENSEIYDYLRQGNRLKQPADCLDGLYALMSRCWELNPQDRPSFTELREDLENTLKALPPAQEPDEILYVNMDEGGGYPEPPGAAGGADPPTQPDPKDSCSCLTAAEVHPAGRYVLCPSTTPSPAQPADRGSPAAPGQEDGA
Outline: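 Recombinant cytoplasmic domain (5 nM) in kinase buffer with 5 mM MgCl2, 1 mM MnCl2, 1 mM DTT, 50 nM SEB plus test compounds; reaction 30 min at room temperature. EDTA-containing detection with TK antibody-cryptate/streptavidin-XL665 for 60 min; HTRF 665/620 ratio read. IC50 from 4-parameter logistic fit with variable slope.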

[2] = target: T2, recombinant human MERTK expressed in live cells (HEK 293, MERTK-Nanoluc fusion vector) (Homo sapiens, UniProt Q12866); experiment: Assay 2 MERTK cellular target engagement (NanoBRET TE) assay; assay type: cell-based; settings: HEK 293 cells, tracer K9, 2 h at 37° C.; read-out: Assay 2 Cell TE MER IC50
T2 construct: host or cells: HEK 293
T2 sequence (Q12866 21-999): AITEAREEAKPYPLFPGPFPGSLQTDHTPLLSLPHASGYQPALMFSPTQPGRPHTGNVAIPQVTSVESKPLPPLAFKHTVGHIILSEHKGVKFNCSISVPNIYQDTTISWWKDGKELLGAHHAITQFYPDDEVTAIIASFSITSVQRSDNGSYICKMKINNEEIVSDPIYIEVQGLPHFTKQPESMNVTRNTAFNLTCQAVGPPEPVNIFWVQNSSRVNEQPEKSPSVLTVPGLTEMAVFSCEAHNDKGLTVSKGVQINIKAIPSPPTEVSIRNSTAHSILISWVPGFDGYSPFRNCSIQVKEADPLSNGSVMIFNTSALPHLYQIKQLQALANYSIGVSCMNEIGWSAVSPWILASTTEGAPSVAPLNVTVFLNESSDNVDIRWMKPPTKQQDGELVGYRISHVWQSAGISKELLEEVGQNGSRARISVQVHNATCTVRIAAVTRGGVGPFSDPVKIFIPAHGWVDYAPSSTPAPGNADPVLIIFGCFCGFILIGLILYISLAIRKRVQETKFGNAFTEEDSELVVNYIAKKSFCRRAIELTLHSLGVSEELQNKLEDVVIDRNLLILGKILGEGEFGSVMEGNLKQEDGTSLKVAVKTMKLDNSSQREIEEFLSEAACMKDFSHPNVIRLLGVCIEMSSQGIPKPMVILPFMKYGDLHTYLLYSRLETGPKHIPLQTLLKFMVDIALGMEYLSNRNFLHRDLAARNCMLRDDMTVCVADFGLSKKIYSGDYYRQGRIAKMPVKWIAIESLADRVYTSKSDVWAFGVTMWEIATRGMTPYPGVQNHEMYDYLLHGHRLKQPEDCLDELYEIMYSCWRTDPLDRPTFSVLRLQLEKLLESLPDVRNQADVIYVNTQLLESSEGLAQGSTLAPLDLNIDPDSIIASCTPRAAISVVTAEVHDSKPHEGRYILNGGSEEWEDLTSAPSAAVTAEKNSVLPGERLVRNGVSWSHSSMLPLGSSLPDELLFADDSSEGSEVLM

[3] = target: T3, recombinant human AXL expressed in live cells (HEK, AXL-Nanoluc fusion vector) (Homo sapiens, UniProt P30530); experiment: Assay 3 AXL cellular target engagement (NanoBRET TE) assay; assay type: cell-based
T3 construct: host or cells: HEK
T3 sequence (P30530 26-894): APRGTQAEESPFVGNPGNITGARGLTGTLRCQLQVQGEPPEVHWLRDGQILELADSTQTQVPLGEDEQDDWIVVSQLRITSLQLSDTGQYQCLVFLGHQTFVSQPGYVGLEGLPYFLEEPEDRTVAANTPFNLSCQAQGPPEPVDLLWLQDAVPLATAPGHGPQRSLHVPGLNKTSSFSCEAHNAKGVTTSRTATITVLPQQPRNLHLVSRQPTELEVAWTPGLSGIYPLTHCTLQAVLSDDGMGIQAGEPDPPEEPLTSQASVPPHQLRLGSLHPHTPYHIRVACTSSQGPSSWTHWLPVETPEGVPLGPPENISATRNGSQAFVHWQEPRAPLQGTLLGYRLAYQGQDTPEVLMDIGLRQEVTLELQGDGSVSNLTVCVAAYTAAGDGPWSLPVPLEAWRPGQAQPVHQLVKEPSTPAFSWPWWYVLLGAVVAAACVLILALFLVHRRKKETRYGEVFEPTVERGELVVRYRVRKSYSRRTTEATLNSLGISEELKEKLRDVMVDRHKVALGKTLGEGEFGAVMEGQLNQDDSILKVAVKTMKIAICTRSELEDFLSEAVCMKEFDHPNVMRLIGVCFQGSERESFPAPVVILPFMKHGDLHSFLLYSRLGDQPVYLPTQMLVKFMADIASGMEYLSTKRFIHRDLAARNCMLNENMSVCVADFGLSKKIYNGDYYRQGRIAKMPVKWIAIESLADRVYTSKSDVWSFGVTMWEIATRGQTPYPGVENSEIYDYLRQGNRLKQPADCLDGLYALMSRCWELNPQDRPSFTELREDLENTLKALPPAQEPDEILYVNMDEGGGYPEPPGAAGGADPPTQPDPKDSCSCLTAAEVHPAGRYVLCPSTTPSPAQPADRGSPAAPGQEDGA
Description: Assay 3—AXL Cellular Target Engagement (TE) Assay
Compound affinities for recombinant human AXL expressed in live cells were assessed via the Promega NanoBRET TE assay technology. Human Embryonic Kidney (HEK) cells were transiently transfected with the AXL-Nanoluc fusion vector (Promega Cat NV1071) using Fugene HD reagent (Promega E2311). […] Incubations were conducted for 2 h at 37° C., after which 20 μl NanoGlo substrate/inhibitor mix (Promega N2161) was added to each well for 2-3 min. The plate was then read on a BMG Pherastar FSX using a NanoBRET filter to record donor emission at 450 nm and acceptor fluorophore emission at 610 nm. From this the BRET ratio (acceptor 610 nm/donor 450 nm) for each data point was calculated.

[4] = target: T4, human MERTK cytoplasmic domain (Homo sapiens, UniProt Q12866); experiment: biochemical; settings: 30 uM ATP, read-out: Assay 1a Mer IC50 30 uM ATP
T4 construct: human MERTK cytoplasmic domain (Carna Biosciences 08-108); purchased Carna Biosciences 08-108
Description: Assay 1a—MERTK HTRF KinEASE-TK Assay
The enzymatic reaction was carried out for 30 min at room temperature. 10 μL TK Antibody-Cryptate/Streptavidin-XL665 (Cisbio 610SAXLG) was then added for 60 min, including EDTA containing detection buffer (Cisbio 62SDBRDF) to stop the reaction.

[5] = HEK cells, tracer K5, 2 h at 37° C., read-out: Assay 3 Cell TE Axl IC50

SMILES | IC50 [1] [µM] | IC50 [2] [µM] | IC50 [3, 5] [µM] | IC50 [4] [µM] | IC50 [3] [µM] | IC50 ([4]; * Maximal inhibition achieved 40%) [µM]
O=C(Nc1ccc(Nc2ccnc3cnc(N4CCNCC4)cc23)cc1)c1cccn(-c2ccccc2)c1=O [Example 1, 2-oxo-1-phenyl-N-[4-[(6-piperazin-1-yl-1,7-naphthyridin-4-yl)amino]phenyl]pyridine-3-carboxamide] | – | 0.175 | – | 0.068 | 0.145 | –
CN1CCC(n2cc(-c3cc4c(Nc5ccc(NC(=O)c6cccn(-c7ccccc7)c6=O)cc5)ccnc4cn3)cn2)CC1 [Example 4.1, N-[4-[[6-[1-(1-methyl-4-piperidyl)pyrazol-4-yl]-1,7-naphthyridin-4-yl]amino]phenyl]-2-oxo-1-phenyl-pyridine-3-carboxamide] | – | 0.131 | – | 0.037 | 0.133 | –
CN1CCC(NC(=O)c2cc3c(Oc4ccc(NC(=O)c5cccn(-c6ccccc6)c5=O)nc4)ccnc3cn2)CC1 [Example 28.2, N-(1-methyl-4-piperidyl)-4-[[6-[(2-oxo-1-phenyl-pyridine-3-carbonyl)amino]-3-pyridyl]oxy]-1,7-naphthyridine-6-carboxamide] | 0.06 | 0.0956 | – | 0.031 | 0.0833 | –
CC(C)n1cc(C(=O)Nc2ccc(Nc3ccnc4cnc(N5CCNCC5)cc34)cc2)c(=O)n(-c2ccccc2)c1=O [Example 1.3, 1-isopropyl-2,4-dioxo-3-phenyl-N-[4-[(6-piperazin-1-yl-1,7-naphthyridin-4-yl)amino]phenyl]pyrimidine-5-carboxamide] | – | 0.26 | – | 0.182 | 0.0248 | –
O=C(Nc1ccc(Nc2ccnc3cnc(N4CCOCC4)cc23)cc1)c1cccn(-c2ccccc2)c1=O [Example 2.1, N-[4-[(6-morpholino-1,7-naphthyridin-4-yl)amino]phenyl]-2-oxo-1-phenyl-pyridine-3-carboxamide] | – | 0.163 | – | 0.196 | 1.41 | –
CN1CCC(NC(=O)c2cc3c(Oc4ccc(NC(=O)c5cccn(-c6ccccc6)c5=O)cc4)ccnc3cn2)CC1 [Example 6, N-(1-methyl-4-piperidyl)-4-[4-[(2-oxo-1-phenyl-pyridine-3-carbonyl)amino]phenoxy]-1,7-naphthyridine-6-carboxamide] | – | 0.11 | – | 0.052 | 0.11 | –
O=C(NOCCO)c1cc2c(Nc3ccc(NC(=O)c4cccn(-c5ccccc5)c4=O)cc3)ccnc2cn1 [Example 5.1, N-(2-hydroxyethoxy)-4-[4-[(2-oxo-1-phenyl-pyridine-3-carbonyl)amino]anilino]-1,7-naphthyridine-6-carboxamide] | – | 0.135 | – | 0.07 | 0.335 | –

Now those with a lower IC50 [2], led by results:

IC50 [1] [µM] | IC50 [2] [µM] | IC50 [3, 5] [µM] | IC50 [4] [µM] | IC50 [3] [µM] | IC50 ([4]; * Maximal inhibition achieved 40%) [µM] | SMILES
0.31 | 0.0808 | 0.127 | 0.017 | – | – | O=C(Nc1ccc(Oc2ccnc3cnc(N4CCNCC4)cc23)cn1)c1cccn(-c2ccccc2)c1=O [Example 32, 2-oxo-1-phenyl-N-[5-[(6-piperazin-1-yl-1,7-naphthyridin-4-yl)oxy]-2-pyridyl]pyridine-3-carboxamide]
0.054 | 0.0804 | 0.114 | 0.011 | – | – | O=C(Nc1ccc(Oc2ccnc3cnc(N4CCNCC4)cc23)cc1)c1cccn(-c2ccccc2)c1=O [Example 12, 2-Oxo-1-phenyl-N-[4-[(6-piperazin-1-yl-1,7-naphthyridin-4-yl)oxy]phenyl]pyridine-3-carboxamide]
– | 0.0466 | – | 0.059 | 0.173 | – | O=C(Nc1ccc(Nc2ccnc3cnc(N4CCC(O)CC4)cc23)cc1)c1cccn(-c2ccccc2)c1=O [Example 2, N-[4-[[6-(4-hydroxy-1-piperidyl)-1,7-naphthyridin-4-yl]amino]phenyl]-2-oxo-1-phenyl-pyridine-3-carboxamide]
– | 0.0419 | – | – | 0.0467 | 0.011 | CNC(=O)c1cc2c(Nc3ccc(NC(=O)c4cccn(-c5ccccc5)c4=O)cc3)ccnc2cn1 [Example 5.3, N-methyl-4-[4-[(2-oxo-1-phenyl-pyridine-3-carbonyl)amino]anilino]-1,7-naphthyridine-6-carboxamide]
0.012 | 0.0261 | – | 0.006 | 0.0349 | – | O=C(Nc1ccc(Oc2ccnc3cnc(N4CCNCC4)cc23)c(F)c1)c1cccn(-c2ccccc2)c1=O [Example 31, N-[3-fluoro-4-[(6-piperazin-1-yl-1,7-naphthyridin-4-yl)oxy]phenyl]-2-oxo-1-phenyl-pyridine-3-carboxamide]
– | 0.0237 | – | 0.054 | 0.189 | – | O=C(Nc1ccc(Nc2ccnc3cnc(N4CCCNCC4)cc23)cc1)c1cccn(-c2ccccc2)c1=O [Example 2.2, N-[4-[[6-(1,4-diazepan-1-yl)-1,7-naphthyridin-4-yl]amino]phenyl]-2-oxo-1-phenyl-pyridine-3-carboxamide]
